Test results reported in article PMC10080127, “Metabolic stability and metabolite profiling of emerging synthetic cathinones” (Frontiers in Pharmacology, 2023).

Experiments:
[1] = Metabolic stability (substrate depletion) in human liver microsome Phase I incubations; settings: for intrinsic clearance (CLint): HLM incubations, scaled with 45 mg microsomal protein/g liver and 26 g liver/kg b.w.; for half-life at 10 μM: human, human liver microsomes
[2] = Phase II (glucuronidation) metabolite generation in alamethicin-induced HLM with NADPH and UDPGA; assay type: in vitro ADME, human; settings: 2 h, LC-HRMS/MS
Description: For the generation of Phase II metabolites, alamethicine-induced HLM ([Fisher et al., 2000]) were used in the presence of Phase I and glucuronidation co-factor. Briefly, HLM (1 mg/mL) were preincubated for 15 min, in ice, with alamethicin (25 μg/mL) in 50 mM ABIC buffer at pH 7.4, for a total incubation volume of 200 μL. Following the addition of MgCl2 (2 mM; 1 μL) and selected cathinone (10 μM final concentration), the resulting solution was incubated for 5 min at 37°. NADPH (5 mM) and UDPGA (5 mM) were then added to start the Phase I and II reactions. Incubations were run in duplicate.
An in-house accurate mass library was first built, considering the metabolic pathways already known for other structurally similar cathinones, and a targeted screening was then carried out by performing extracted ion chromatograms (EIC), with a mass window of ±5 ppm, for the protonated/deprotonated molecules of the expected metabolites in the full scan spectra. Isotope cluster analysis was also used to identify chlorinated metabolites. All spectra corresponding to metabolites were then manually checked. The mass deviation from the accurate mass of the identified cathinone metabolites remained below 5 ppm for the precursor and below 10 ppm for product ions. Candidates present in control incubations and/or without MS/MS data were excluded. […] Metabolites were ranked based on their relative abundance over incubation time (Figures 2–9). The relative abundance was calculated by the ratio of the relative area of each metabolite and the sum of the relative areas obtained for all metabolites and for the respective parent cathinone.

[3] = parameters: method as in Wagmann et al., 2020; settings: ref Wagmann et al., 2020; cited from earlier work
[4] = pH 7.4, half-life (t1/2), HLM 1 mg/mL, cathinone 10 μM, NADPH, 37°C, pH 7.4
[5] = pH 7.4, clearance classification based on t1/2, HLM, scoring proposed by McNaney et al. (2008)

CC(C)NC(C)C(=O)c1cccc(Cl)c1 (stereo not shown) [3-CIC, 3′-chloro-N-isopropylcathinone]
intrinsic clearance (CLint) [1]: 34 mLmin^−1 kg^−1
half-life at 10 μM [1, 4]: 24 min

CCNC(CC)C(=O)c1ccc(C)cc1 (stereo not shown) [4-MNEB, 4′-methyl-N-ethylbufedrone]
Phase II (glucuronide) metabolites identified [2]: No Phase II metabolites were identified
intrinsic clearance (CLint) [1]: 16 mLmin^−1 kg^−1
half-life at 10 μM [1, 4]: 55 min

CNC(C)C(=O)c1cccc(Cl)c1 (stereo not shown) [3-CMC, 3′-chloromethcathinone]
Phase II (glucuronide) metabolites identified [2]: No Phase II metabolites were identified
intrinsic clearance (CLint) [1]: 15 mLmin^−1 kg^−1
half-life at 10 μM [1, 4]: 54 min

CCCC(NCC)C(=O)c1ccc(C)cc1 (stereo not shown) [4-MEAP, 4′-methyl-N-ethylnorpentedrone]
Phase II (glucuronide) metabolites identified [2]: no glucuronide metabolite was identified
intrinsic clearance (CLint) [1]: 33 mLmin^−1 kg^−1
half-life at 10 μM [1, 4]: 24 min

CCC(C(=O)c1ccc(C)cc1)N(C)C (stereo not shown) [4-MDMB, 4′-methyl-N,N-dimethylbufedrone]
Phase II (glucuronide) metabolites identified [2]: No Phase II metabolite was detected
intrinsic clearance (CLint) [1]: 54 mLmin^−1 kg^−1
half-life at 10 μM [1, 5]: < 20 min
half-life at 10 μM [1, 4]: 15 min

CCNC(C)C(=O)c1ccc(Cl)cc1 (stereo not shown) [4-CEC, 4-chloroethcathinone]
half-life (t1/2) reported [3]: 105 min

CC(C)NC(C)C(=O)c1ccc(Cl)cc1 (stereo not shown) [4-CIC, 4′-chloro-N-isopropylcathinone]
intrinsic clearance (CLint) [1]: 22 mLmin^−1 kg^−1
half-life at 10 μM [1, 4]: 36 min

CNC(C)C(=O)c1ccc(Cl)cc1 (stereo not shown) [4-CMC, 4′-chloromethcathinone]
Phase II (glucuronide) metabolites identified [2]: no Phase II metabolite was identified
intrinsic clearance (CLint) [1]: 10 mLmin^−1 kg^−1
half-life at 10 μM [1, 5]: > 60 min
half-life at 10 μM [1, 4]: 78 min

CCCC(C(=O)c1ccc(C)cc1)N(C)C (stereo not shown) [4-MDMP, 4′-methyl-N,N-dimethylpentedrone]
Phase II (glucuronide) metabolites identified [2]: No Phase II metabolites were identified
intrinsic clearance (CLint) [1]: 18 mLmin^−1 kg^−1
half-life at 10 μM [1, 4]: 46 min
